Numbers after ± are expanded uncertainties.
What was measured:
[1] = Liquid; for mass density: 298.15 K, 101.33 kPa; for vapor or sublimation pressure: 313.15 K
[2] = excess molar enthalpy (molar enthalpy of mixing); xn = mol fraction of the nth substance listed; conditions: 101 kPa, Liquid, Flow calorimetry

CCCCCl [1-chlorobutane]
[1]
Conditions | mass density [kg/m3] | vapor or sublimation pressure [kPa]
– | 880.72 ± 0.22 | 25.72 ± 0.036

CCCCCl [1-chlorobutane] + CC(=O)N(C)C
[2]
Conditions | excess molar enthalpy [kJ/mol]
298.15 K, x2 = 0.06 | 0.068 ± 0.005
298.15 K, x2 = 0.111 | 0.141 ± 0.005
298.15 K, x2 = 0.212 | 0.244 ± 0.005
298.15 K, x2 = 0.312 | 0.313 ± 0.005
298.15 K, x2 = 0.412 | 0.354 ± 0.005
298.15 K, x2 = 0.511 | 0.363 ± 0.005
298.15 K, x2 = 0.61 | 0.348 ± 0.005
298.15 K, x2 = 0.708 | 0.305 ± 0.005
298.15 K, x2 = 0.805 | 0.234 ± 0.005
298.15 K, x2 = 0.902 | 0.13 ± 0.005
298.15 K, x2 = 0.95 | 0.069 ± 0.005
308.15 K, x2 = 0.057 | 0.068 ± 0.005
308.15 K, x2 = 0.106 | 0.14 ± 0.005
308.15 K, x2 = 0.206 | 0.246 ± 0.005
308.15 K, x2 = 0.305 | 0.318 ± 0.005
308.15 K, x2 = 0.404 | 0.362 ± 0.005
308.15 K, x2 = 0.503 | 0.375 ± 0.005
308.15 K, x2 = 0.602 | 0.361 ± 0.005
308.15 K, x2 = 0.7 | 0.317 ± 0.005
308.15 K, x2 = 0.799 | 0.243 ± 0.005
308.15 K, x2 = 0.897 | 0.139 ± 0.005
308.15 K, x2 = 0.946 | 0.072 ± 0.005
308.15 K, x2 = 0.966 | 0.041 ± 0.005

CCCCCl [1-chlorobutane] + CN(C)C=O
excess molar enthalpy [kJ/mol], [2]
Conditions | 298.15 K | 308.15 K
x2 = 0.056 | 0.123 ± 0.006 | –
x2 = 0.058 | – | 0.117 ± 0.006
x2 = 0.106 | 0.239 ± 0.006 | –
x2 = 0.108 | – | 0.231 ± 0.006
x2 = 0.207 | 0.404 ± 0.006 | 0.4 ± 0.006
x2 = 0.306 | – | 0.508 ± 0.006
x2 = 0.308 | 0.509 ± 0.006 | –
x2 = 0.404 | – | 0.568 ± 0.006
x2 = 0.407 | 0.564 ± 0.006 | –
x2 = 0.503 | – | 0.58 ± 0.006
x2 = 0.507 | 0.571 ± 0.006 | –
x2 = 0.602 | – | 0.552 ± 0.006
x2 = 0.606 | 0.54 ± 0.006 | –
x2 = 0.701 | – | 0.481 ± 0.006
x2 = 0.705 | 0.467 ± 0.006 | –
x2 = 0.799 | – | 0.364 ± 0.006
x2 = 0.803 | 0.352 ± 0.006 | –
x2 = 0.898 | – | 0.201 ± 0.006
x2 = 0.901 | 0.192 ± 0.006 | –
x2 = 0.947 | – | 0.103 ± 0.006
x2 = 0.95 | 0.098 ± 0.006 | –
x2 = 0.967 | – | 0.061 ± 0.006

CCCCCCCl [1-chlorohexane]
[1]
Conditions | mass density [kg/m3] | vapor or sublimation pressure [kPa]
– | 873.21 ± 1 | 2.857 ± 0.021

CCCCCCCl [1-chlorohexane] + CC(=O)N(C)C
excess molar enthalpy [kJ/mol], [2]
Conditions | 298.15 K | 308.15 K
x2 = 0.059 | – | 0.106 ± 0.006
x2 = 0.064 | 0.105 ± 0.006 | –
x2 = 0.108 | – | 0.204 ± 0.006
x2 = 0.113 | 0.199 ± 0.006 | –
x2 = 0.206 | – | 0.391 ± 0.006
x2 = 0.211 | 0.38 ± 0.006 | –
x2 = 0.304 | – | 0.52 ± 0.006
x2 = 0.309 | 0.499 ± 0.006 | –
x2 = 0.402 | – | 0.602 ± 0.007
x2 = 0.407 | 0.575 ± 0.006 | –
x2 = 0.501 | – | 0.642 ± 0.007
x2 = 0.505 | 0.61 ± 0.006 | –
x2 = 0.6 | – | 0.631 ± 0.007
x2 = 0.603 | 0.598 ± 0.006 | –
x2 = 0.698 | – | 0.569 ± 0.006
x2 = 0.701 | 0.538 ± 0.006 | –
x2 = 0.798 | 0.425 ± 0.006 | 0.453 ± 0.006
x2 = 0.896 | 0.246 ± 0.006 | –
x2 = 0.897 | – | 0.262 ± 0.006
x2 = 0.945 | 0.132 ± 0.006 | –
x2 = 0.947 | – | 0.14 ± 0.007
x2 = 0.967 | – | 0.084 ± 0.007

CCCCCCCl [1-chlorohexane] + CN(C)C=O
[2]
Conditions | excess molar enthalpy [kJ/mol]
298.15 K, x2 = 0.058 | 0.161 ± 0.007
298.15 K, x2 = 0.107 | 0.306 ± 0.007
298.15 K, x2 = 0.205 | 0.542 ± 0.007
298.15 K, x2 = 0.303 | 0.694 ± 0.007
298.15 K, x2 = 0.402 | 0.802 ± 0.008
298.15 K, x2 = 0.5 | 0.847 ± 0.008
298.15 K, x2 = 0.598 | 0.822 ± 0.008
298.15 K, x2 = 0.697 | 0.741 ± 0.008
298.15 K, x2 = 0.796 | 0.583 ± 0.008
298.15 K, x2 = 0.894 | 0.336 ± 0.007
298.15 K, x2 = 0.944 | 0.175 ± 0.008
308.15 K, x2 = 0.062 | 0.144 ± 0.008
308.15 K, x2 = 0.111 | 0.316 ± 0.007
308.15 K, x2 = 0.208 | 0.555 ± 0.007
308.15 K, x2 = 0.305 | 0.721 ± 0.008
308.15 K, x2 = 0.403 | 0.826 ± 0.008
308.15 K, x2 = 0.501 | 0.87 ± 0.008
308.15 K, x2 = 0.6 | 0.848 ± 0.008
308.15 K, x2 = 0.699 | 0.761 ± 0.008
308.15 K, x2 = 0.798 | 0.6 ± 0.008
308.15 K, x2 = 0.897 | 0.349 ± 0.008
308.15 K, x2 = 0.947 | 0.183 ± 0.008
308.15 K, x2 = 0.967 | 0.108 ± 0.009

CCCCCCCCCl [1-chlorooctane]
Conditions | mass density [kg/m3]
[1] | 868.98 ± 2.1

CCCCCCCCCl [1-chlorooctane] + CC(=O)N(C)C
[2]
Conditions | excess molar enthalpy [kJ/mol]
298.15 K, x2 = 0.067 | 0.136 ± 0.007
298.15 K, x2 = 0.117 | 0.273 ± 0.007
298.15 K, x2 = 0.215 | 0.519 ± 0.007
298.15 K, x2 = 0.313 | 0.676 ± 0.007
298.15 K, x2 = 0.411 | 0.78 ± 0.008
298.15 K, x2 = 0.508 | 0.829 ± 0.008
298.15 K, x2 = 0.606 | 0.821 ± 0.008
298.15 K, x2 = 0.703 | 0.751 ± 0.008
298.15 K, x2 = 0.8 | 0.609 ± 0.008
298.15 K, x2 = 0.897 | 0.37 ± 0.008
298.15 K, x2 = 0.945 | 0.202 ± 0.008
308.15 K, x2 = 0.061 | 0.135 ± 0.007
308.15 K, x2 = 0.11 | 0.274 ± 0.007
308.15 K, x2 = 0.207 | 0.531 ± 0.007
308.15 K, x2 = 0.305 | 0.703 ± 0.008
308.15 K, x2 = 0.403 | 0.817 ± 0.008
308.15 K, x2 = 0.501 | 0.874 ± 0.008
308.15 K, x2 = 0.6 | 0.871 ± 0.008
308.15 K, x2 = 0.699 | 0.8 ± 0.008
308.15 K, x2 = 0.798 | 0.651 ± 0.008
308.15 K, x2 = 0.898 | 0.396 ± 0.008
308.15 K, x2 = 0.948 | 0.216 ± 0.009
308.15 K, x2 = 0.968 | 0.126 ± 0.01

CCCCCCCCCl [1-chlorooctane] + CN(C)C=O
[2]
Conditions | excess molar enthalpy [kJ/mol]
298.15 K, x2 = 0.064 | 0.174 ± 0.009
298.15 K, x2 = 0.113 | 0.361 ± 0.009
298.15 K, x2 = 0.21 | 0.68 ± 0.009
298.15 K, x2 = 0.308 | 0.886 ± 0.009
298.15 K, x2 = 0.405 | 1.029 ± 0.009
298.15 K, x2 = 0.502 | 1.087 ± 0.009
298.15 K, x2 = 0.6 | 1.071 ± 0.009
298.15 K, x2 = 0.698 | 0.978 ± 0.009
298.15 K, x2 = 0.795 | 0.79 ± 0.009
298.15 K, x2 = 0.893 | 0.49 ± 0.009
298.15 K, x2 = 0.942 | 0.265 ± 0.01
308.15 K, x2 = 0.069 | 0.213 ± 0.009
308.15 K, x2 = 0.117 | 0.385 ± 0.008
308.15 K, x2 = 0.212 | 0.678 ± 0.009
308.15 K, x2 = 0.309 | 0.917 ± 0.009
308.15 K, x2 = 0.406 | 1.064 ± 0.009
308.15 K, x2 = 0.503 | 1.128 ± 0.01
308.15 K, x2 = 0.601 | 1.115 ± 0.01
308.15 K, x2 = 0.699 | 1.018 ± 0.009
308.15 K, x2 = 0.798 | 0.828 ± 0.009
308.15 K, x2 = 0.898 | 0.501 ± 0.009
308.15 K, x2 = 0.948 | 0.28 ± 0.011
308.15 K, x2 = 0.968 | 0.167 ± 0.012

CC(=O)N(C)C [N,N-dimethylethanamide]
Conditions | mass density [kg/m3]
[1] | 936.34 ± 0.81

CN(C)C=O [dimethylformamide]
Conditions | mass density [kg/m3]
[1] | 943.81 ± 0.78
